The source of these data is patent US8410141B2, “Insecticidal arylpyrrolines” (Bayer Cropscience AG, priority 2009, dated 2013).

Type in all cases: in vivo
The test system of data set [1] is Tobacco Cutworm (Spodoptera litura) Larvae. Nature of the data set: Test against tobacco cutworm (Spodoptera litura) larvae, leaf immersion. To be noted: 100 ppm; sweet potato leaves immersed; third-instar larvae; after 7 days. The method, then:
(§1) Unless not mentioned otherwise, the test solutions were prepared as follows:
(§2) Containing as solvent: Dimethylformamide, 3 parts by weight; and as emulsifier: Polyoxyethylene alkyl phenyl ether, 1 part by weight. To prepare the test solution, 1 part by weight of an active compound is mixed with the above-mentioned amount of solvent containing the above-mentioned amount of emulsifier, and the mixture is diluted with water to the desired concentration.
The leaves of sweet potato were immersed in the test solution at the appropriate concentration, and the leaves were dried in air. The leaves were then placed in a petri dish having a diameter of 9 cm, and ten third-instar larvae of tobacco cutworm were released therein. The petri dish was placed in a temperature-controlled chamber at 25° C. After 2 days and 4 days sweet potato leaves were additionally added. After 7 days, the number of dead larvae was counted to calculate the insecticidal activity. An insecticidal activity of 100% means that all larvae were killed, whereas an insecticidal activity of 0% means that no larva was killed. In the current test, the results of two petri dishes for each partition were averaged.

For data set [2], the system named is Two-Spotted Spider Mite (Tetranychus urticae). Nature of the data set: Test against two-spotted spider mite (Tetranychus urticae), spray. Conditions: 100 ppm; sprayed on kidney bean; adult mites; after 7 days. The method, then:
as §1, §2
50 to 100 adult two-spotted spider mites were inoculated onto the leaves of kidney beans at the two-true leaf stage, which plant had been cultivated in a pot having a diameter of 6 cm. After one day, test solution at the appropriate concentration was sprayed thereon in a sufficient amount using a spray gun. After the spraying, the plant pot was placed inside a greenhouse, and after 7 days, the acaricidal activity was calculated. An acaricidal activity of 100% means that all mites were killed, whereas an acaricidal activity of 0% means that no mite was killed.

The subject of data set [3] is Cucurbit Leaf Beetle (Aulacophora femoralis). Nature of the data set: Test against cucurbit leaf beetle (Aulacophora femoralis), leaf immersion. To be noted: 100 ppm; cucumber leaves immersed; second-instar larvae; after 7 days. The method, then: as §1, §2
Cucumber leaves were immersed in the test solution at the appropriate concentration, and the leaves were dried in air. The leaves were then placed in a plastic cup containing sterilized black soil, and five second-instar larvae of cucurbit leaf beetle were released therein. The plastic cup was placed in a temperature-controlled chamber at 25° C. After 7 days, the number of dead larvae was counted, and thus the insecticidal activity was calculated. An insecticidal activity of 100% means that all beetles were killed, whereas an insecticidal activity of 0% means that no beetle was killed.

The subject of data set [4] is Tobacco Cutworm (Spodoptera litura) Larvae. Nature of the data set: Test against tobacco cutworm larvae, root systemicity. To be noted: 100 ppm; broccoli seedling roots dipped 3 days; second-instar larvae; after 4 days. The method, then: as §1, §2
The roots of seedling of broccoli at 1.2 leaf stage were dipped into the test solution at the appropriate concentration. After 3 days, the leaves were cut and placed in a petri dish having a diameter of 9 cm. And then five second-instar larvae of tobacco cutworm were released therein. The petri dish was placed in a temperature-controlled room at 25° C. After 4 days, the number of dead larvae was counted, to calculate the insecticidal activity. An insecticidal activity of 100% means that all larvae were killed, whereas an insecticidal activity of 0% means that no larva was killed.

Data set [5] has the same test system. Nature of the data set: Test against tobacco cutworm larvae, systemic test by soil drench. Conditions: 250 ppm, 20 ml soil drench on potted broccoli, leaves cut after 7 days, third-instar larvae. As to the method:
as §1, §2
20 ml of the test solution at the appropriate concentration was treated on the soil surface of potted broccoli seedling at 2 to 3 leaf stage. After 7 days, the leaves were cut and placed in a petri dish having a diameter of 9 cm. And then ten third-instar larvae of tobacco cutworm were released therein. The petri dish was placed in a temperature-controlled room at 25° C. After 7 days, the number of dead larvae was counted to calculate the insecticidal activity. An insecticidal activity of 100% means that all larvae were killed, whereas an insecticidal activity of 0% means that no larva was killed. […] The comparative compound A is No. 1-72 in WO2009/097992.

Data set [6] has as its system Rice Leafroller (Cnaphalocrocis medinalis) Larvae. Nature of the data set: Test against rice leafroller larvae, seed treatment. Conditions: 8 g/1 kg dry seeds, leaves cut 28 days after seeding, third-instar larvae, after 7 days. As to the method: To prepare the test solution, 1 part by weight of an active compound is mixed with the 8 parts of acetone, and mix with 20 mg of micronized mineral. After that 1 g of dry rice seeds and 50 ul of water are added and mixed well and dried in the air. Sow treated seeds in the pot having a diameter of 12 cm. 28 days after seeding the leaves were cut and placed in a petri dish having a diameter of 9 cm. And then five third-instar larvae of rice leafroller were released therein. The petri dish was placed in a temperature-controlled room at 25° C. After 7 days, the number of dead larvae was counted to calculate the insecticidal activity. An insecticidal activity of 100% means that all larvae were killed, whereas an insecticidal activity of 0% means that no larva was killed. […] The comparative compound B is No. 1-79 in WO2009/097992.

For data set [7], the system named is adult engorged female Boophilus microplus ticks. Nature of the data set: Boophilus microplus (dip). To be noted: Rhipicephalus microplus, 168 h. The method, then:
Solvent: Dimethylsulfoxid
To produce a suitable preparation of active compound, 10 mg of active compound are dissolved in 0.5 ml solvent, and the concentrate is diluted with water to the desired concentration. Eight to ten adult engorged female Boophilus microplus ticks are placed in perforated plastic beakers and immersed in aqueous compound solution for one minute. Ticks are transferred to a filter paper in a plastic tray. Egg deposition of fertile eggs is monitored after. After 7 days mortality in % is determined. 100% means that all the ticks have been killed; 0% means that none of the ticks have been killed.

Data set [8] relates to Ctenocephalides felis. Nature of the data set: Ctenocephalides felis test (CTECFE). Conditions: Ctenocephalides felis, 48 h. The method, then: (§3) Solvent: dimethyl sulfoxide
To produce a suitable preparation of active compound, 10 mg of active compound are dissolved in 0.5 ml solvent, and the concentrate is diluted with cattle blood to the desired concentration. Approximately 20 adult unfed (Ctenocepahlides felis) are placed in flea chambers. The blood chamber, sealed with parafilm on the bottom, are filled with cattle blood supplied with compound solution and placed on top of the flea chamber, so that the fleas are able to suck the blood. The blood chamber is heated to 37° C. whereas the flea chamber is kept at room temperature. After 2 days mortality in % is determined. 100% means that all the fleas have been killed; 0% means that none of the fleas have been killed.

Data set [9] deals with Lucilia cuprina 1st instar larvae. Nature of the data set: Lucilia cuprina (48 h). The method, then:
Species: Lucilia cuprina 1st instar larvae (age 24 hrs)
as §3
10 mg active compound are dissolved in 0.5 ml dimethyl sulfoxide. Serial dilutions are made to obtain the desired rates. Approximately 20 Lucilia cuprina 1st instar larvae are transferred into a test tube containing 1 cm^3 of minced horse meat and 0.5 ml aqueous dilution of test compound. After 48 hrs percentage of larval mortality are recorded. 100% efficacy=all larvae are killed, […].

Data set [10] relates to Musca domestica. Nature of the data set: Musca domestica test. The method, then: as §3
To produce a suitable preparation of active compound, 10 mg of active compound are dissolved in 0.5 ml solvent, and the concentrate is diluted with water to the desired concentration. Prior to the assay, a piece of kitchen sponge is soaked with a mixture of sugar and compound solution and placed into a container. 10 adults (Musca domestica) are placed into the container and closed with a perforated lid. After 2 days mortality in % is determined. 100% means that all the flies have been killed; 0% means that none of the flies have been killed.

The subject of data set [11] is mustard beetle larvae (Phaedon cochleariae). Nature of the data set: Phaedon cochleariae test, PHAECO spray application. Conditions: 100 g/ha; Chinese cabbage leaf-disks sprayed; after 7 days. As to the method:
Solvent: 78.0 parts by weight of acetone
• 1.5 parts by weight of dimethylformamide Emulsifier: 0.5 parts by weight of alkylaryl polyglycolether
To produce a suitable preparation of active compound, 1 part by weight of active compound is mixed with the stated amount of solvent and emulsifier, and the concentrate is diluted with emulsifier-containing water to the desired concentration.
Chinese cabbage (Brassica pekinesis) leaf-disks are sprayed with a preparation of the active ingredient of the desired concentration. Once dry, the leaf disks are infested with mustard beetle larvae (Phaedon cochleariae).
After 7 days mortality in % is determined. 100% means that all beetle larvae have been killed and 0% means that none of the beetle larvae have been killed.

Data set [12] deals with fall armyworm larvae (Spodoptera frugiperda). Nature of the data set: Spodoptera frugiperda test, SPODFR spray application. Conditions: 100 g/ha; maize leaf sections sprayed; after 7 days. From the text: (§4) Solvent: 78.0 parts by weight acetone
(§5) • 1.5 parts by weight dimethylformamide Emulsifier: 0.5 parts by weight alkylarylpolyglycolether
To produce a suitable preparation of the active compound, 1 part by weight of active compound is mixed with the stated amount of solvent and emulsifier, and the concentrate is dilutes with emulsifier-containing water to the desired concentration. Maize (Zea mais) leaf sections are sprayed with a preparation of the active ingredient of the desired concentration. Once dry, the leaf sections are infested with fall armyworm larvae (Spodoptera frugiperda).
After 7 days mortality in % is determined. 100% means that all caterpillars have been killed and 0% means that none of the caterpillars have been killed.

In data set [13] the test system is two spotted spidermite (Tetranychus urticae), OP-resistant. Nature of the data set: Tetranychus urticae test, OP-resistant (TETRUR spray application). To be noted: 100 g/ha; French beans sprayed; all stages; after 6 days. The method, then:
as §4, §5
To produce a suitable preparation of active compound, 1 part by weight of active compound is mixed with the stated amount of solvent and emulsifier, and the concentrate is diluted with emulsifier-containing water to the desired concentration. French beans (Phaseolus vulgaris) which are heavily infested with all stages of the two spotted spidermite (Tetranychus urticae), are sprayed with a preparation of the active ingredient at the desired concentration.
After 6 days mortality in % is determined. 100% means that all spider mites have been killed and 0% means that none of the spider mites have been killed.

The subject of data set [14] is green peach aphid (Myzus persicae). Nature of the data set: Myzus test, oral (MYZUPE O). To be noted: 100 g/ha; aphids suck on preparation; after 5 days. The method, then:
Solvent: 80 parts by weight acetone
To produce a suitable preparation of active compound, 1 part by weight of active compound ist mixed with the stated amount of solvent and emulsifier, and the concentrate is diluted with emulsifier-containing water to the desired concentration. Containers are infested with a mixed population of the green peach aphid (Myzus persicae), the aphids suck on a preparation of the active compound at the desired concentration.
After 5 days mortality in % is determined. 100% means that all aphids have been killed; 0% means that none of the aphids have been killed.

On to `N#Cc1cc(C2=NCC(c3cc(Cl)nc(Cl)c3)(C(F)(F)F)C2)ccc1-n1cncn1` (stereo not shown) [1-1, 5-[3-(2,6-dichloropyridin-4-yl)-3-(trifluoromethyl)-3,4-dihydro-2H-pyrrol-5-yl]-2-(1H-1,2,4-triazol-1-yl)benzonitrile], for which the insecticidal activity in data set [1], in [3], in data set [4], in data set [5] and in data set [6] was 100% each time. Further, in data set [2], the acaricidal activity rate is recorded as 100%. Further, the mortality at 100 ppm in data set [7] is 100%; in [8], 100%; in data set [9] (Lucilia cuprina, 48 h, read-out: larval mortality), 100%; in data set [10] (Musca domestica, 48 h), 100%.
With `CN(C)c1c(Cl)cc(C2(C(F)(F)F)CN=C(c3ccc(-n4cncn4)c(C#N)c3)C2)cc1Cl` (stereo not shown) [1-3], the mortality in data set [11] is reported as 100%; in data set [12], 83%; in data set [13], 100%; in data set [14], 100%.
Turning to `N#Cc1cc(C2=NCC(c3cc(C(F)(F)F)nc(C(F)(F)F)c3)(C(F)(F)F)C2)ccc1-n1cncn1` (stereo not shown) [1-22], the insecticidal activity in data set [1], in [3], in [4], in data set [5] and in data set [6] was 100% throughout. Further, the acaricidal activity rate in data set [2] is reported as 100%.
As for `N#Cc1cc(C2=NCC(c3cc(Cl)c4c(c3)OC(F)(F)O4)(C(F)(F)F)C2)ccc1-n1cncn1` (stereo not shown) [1-25], the insecticidal activity in data set [1], in data set [3] and in data set [4] was 100% throughout. The compound also yielded a larval mortality in data set [9] (100 ppm, minced horse meat, after 48 hrs) of 90%. This compound gave a mortality in data set [10] (100 ppm, sponge with sugar and compound solution, adults, after 2 days) of 90%.

As usually defined, the mortality is the share of the test organisms that died.
